In the OligoGym collection:
Oligonucleotides are written 5' to 3', each unit as a sugar letter and its base; * is a phosphorothioate linkage, no mark a phosphodiester; rarer units and linkages stand in square brackets, end groups in braces. Plain capitals give the bases only. d = 2'-deoxy (DNA); r = 2'-OH (RNA)

Molecular target: UBE2E3
Assay: reporter assay of Huesken 2005
Settings: siRNA
Also: test concentration or dose not given here.

Row | Substance | normalised inhibition (eCFP-eYFP dual reporter) [%]
1 | sense rArArArArCrCrUrUrCrUrGrCrCrArCrCrCrArGdTdT / antisense rCrUrGrGrGrUrGrGrCrArGrArArGrGrUrUrUrUdCdT | 32.1
2 | sense rArArArGrGrUrUrArCrUrUrUrCrCrGrCrArCrCdTdT / antisense rGrGrUrGrCrGrGrArArArGrUrArArCrCrUrUrUdGdG | 50.7
3 | sense rArArCrArGrArGrCrArGrArArCrArCrGrArCrAdTdT / antisense rUrGrUrCrGrUrGrUrUrCrUrGrCrUrCrUrGrUrUdGdG | 76.9
4 | sense rArArCrArGrUrCrArGrGrGrArGrUrCrArUrCrUdTdT / antisense rArGrArUrGrArCrUrCrCrCrUrGrArCrUrGrUrUdGdA | 58.5
5 | sense rArArCrUrCrUrCrUrArGrCrArArArArCrCrArCdTdT / antisense rGrUrGrGrUrUrUrUrGrCrUrArGrArGrArGrUrUdTdG | 52.4
6 | sense rArArGrGrArGrArUrArArCrArUrUrUrArUrGrAdTdT / antisense rUrCrArUrArArArUrGrUrUrArUrCrUrCrCrUrUdTdA | 52
7 | sense rArArUrUrCrArGrArArGrGrArGrCrUrArGrCrUdTdT / antisense rArGrCrUrArGrCrUrCrCrUrUrCrUrGrArArUrUdCdT | 71.2
8 | sense rArCrArCrCrArArArCrUrCrUrCrUrArGrCrArAdTdT / antisense rUrUrGrCrUrArGrArGrArGrUrUrUrGrGrUrGrUdTdT | 90.1
9 | sense rArCrArGrGrArUrArGrCrCrArGrArCrArGrUrGdTdT / antisense rCrArCrUrGrUrCrUrGrGrCrUrArUrCrCrUrGrUdCdG | 55.2
10 | sense rArCrArUrCrArArCrArGrUrCrArGrGrGrArGrUdTdT / antisense rArCrUrCrCrCrUrGrArCrUrGrUrUrGrArUrGrUdTdG | 69.9
11 | sense rArCrUrArUrUrUrCrArArArGrGrUrUrUrUrGrCdTdT / antisense rGrCrArArArArCrCrUrUrUrGrArArArUrArGrUdCdA | 34.3
12 | sense rArCrUrGrCrArArCrCrCrUrGrCrGrGrArUrCrCdTdT / antisense rGrGrArUrCrCrGrCrArGrGrGrUrUrGrCrArGrUdCdT | 71.1
13 | sense rArGrArUrCrArArCrUrArUrArCrUrUrGrGrUrCdTdT / antisense rGrArCrCrArArGrUrArUrArGrUrUrGrArUrCrUdCdC | 52.8
14 | sense rArGrCrCrUrGrArArGrArArCrArArGrArGrGrAdTdT / antisense rUrCrCrUrCrUrUrGrUrUrCrUrUrCrArGrGrCrUdCdT | 89
15 | sense rArGrCrUrGrArArArUrArArCrCrCrUrUrGrArUdTdT / antisense rArUrCrArArGrGrGrUrUrArUrUrUrCrArGrCrUdAdG | 82
16 | sense rArGrUrCrCrCrGrCrUrUrUrGrArCrUrArUrUrUdTdT / antisense rArArArUrArGrUrCrArArArGrCrGrGrGrArCrUdCdC | 56.7
17 | sense rArUrArGrCrCrArCrUrCrArGrUrArUrUrUrGrAdTdT / antisense rUrCrArArArUrArCrUrGrArGrUrGrGrCrUrArUdGdC | 88.7
18 | sense rArUrCrArArCrArGrUrCrArGrGrGrArGrUrCrAdTdT / antisense rUrGrArCrUrCrCrCrUrGrArCrUrGrUrUrGrArUdGdT | 70.5
19 | sense rArUrCrArArCrUrArUrArCrUrUrGrGrUrCrCrAdTdT / antisense rUrGrGrArCrCrArArGrUrArUrArGrUrUrGrArUdCdT | 59.5
20 | sense rArUrCrArCrUrGrCrArArCrArUrCrArArCrArGdTdT / antisense rCrUrGrUrUrGrArUrGrUrUrGrCrArGrUrGrArUdAdG | 69.7
21 | sense rArUrUrCrArGrArArGrGrArGrCrUrArGrCrUrGdTdT / antisense rCrArGrCrUrArGrCrUrCrCrUrUrCrUrGrArArUdTdC | 42.3
22 | sense rArUrUrUrArArGrCrCrArCrCrArArArGrGrUrUdTdT / antisense rArArCrCrUrUrUrGrGrUrGrGrCrUrUrArArArUdGdG | 64.2

Molecular target: UBE2G1
Assay: reporter assay of Huesken 2005
Settings: siRNA

Row | Substance | normalised inhibition (eCFP-eYFP dual reporter) [%]
23 | sense rGrCrUrGrCrGrArArArGrArArUrGrGrArGrGrGdTdT / antisense rCrCrCrUrCrCrArUrUrCrUrUrUrCrGrCrArGrCdAdT | 63.8
24 | sense rGrCrUrGrGrCrUrCrCrCrUrArUrCrCrArCrArCdTdT / antisense rGrUrGrUrGrGrArUrArGrGrGrArGrCrCrArGrCdGdT | 64
25 | sense rGrGrArArArCrCrArUrCrArUrGrArUrUrArGrUdTdT / antisense rArCrUrArArUrCrArUrGrArUrGrGrUrUrUrCrCdAdC | 54.4
26 | sense rGrGrArArGrUrCrCrUrUrArUrUrArUrUrGrGrCdTdT / antisense rGrCrCrArArUrArArUrArArGrGrArCrUrUrCrCdCdA | 71
27 | sense rGrGrCrUrUrUrUrCrUrGrCrArGrGrUrUrUrArAdTdT / antisense rUrUrArArArCrCrUrGrCrArGrArArArArGrCrCdTdT | 83.3
28 | sense rGrGrUrGrArUrGrUrGrUrGrCrArUrUrUrCrUrAdTdT / antisense rUrArGrArArArUrGrCrArCrArCrArUrCrArCrCdAdT | 94.7
29 | sense rGrUrUrArUrGrArArArArGrCrCrArGrArGrGrAdTdT / antisense rUrCrCrUrCrUrGrGrCrUrUrUrUrCrArUrArArCdCdA | 49.3
30 | sense rUrArCrCrGrArUrGrGrGrArArGrUrCrCrUrUrAdTdT / antisense rUrArArGrGrArCrUrUrCrCrCrArUrCrGrGrUrAdGdA | 93.1
31 | sense rUrArUrCrCrArCrArCrUrGrUrGrGrArArArCrCdTdT / antisense rGrGrUrUrUrCrCrArCrArGrUrGrUrGrGrArUrAdGdG | 41.2
32 | sense rUrArUrGrGrUrUrArUrGrArArArArGrCrCrArGdTdT / antisense rCrUrGrGrCrUrUrUrUrCrArUrArArCrCrArUrAdCdT | 31.8
33 | sense rUrCrArUrGrArGrCrCrUrGrGrGrGrArArGrArUdTdT / antisense rArUrCrUrUrCrCrCrCrArGrGrCrUrCrArUrGrAdAdG | 76.4
34 | sense rUrCrCrArCrArCrUrGrUrGrGrArArArCrCrArUdTdT / antisense rArUrGrGrUrUrUrCrCrArCrArGrUrGrUrGrGrAdTdA | 85.3
35 | sense rUrCrCrCrUrArUrCrCrArCrArCrUrGrUrGrGrAdTdT / antisense rUrCrCrArCrArGrUrGrUrGrGrArUrArGrGrGrAdGdC | 62.1
36 | sense rUrCrCrUrUrArUrUrArUrUrGrGrCrCrCrUrCrCdTdT / antisense rGrGrArGrGrGrCrCrArArUrArArUrArArGrGrAdCdT | 44.7
37 | sense rUrCrUrGrCrArGrGrUrUrUrArArUrArGrArUrGdTdT / antisense rCrArUrCrUrArUrUrArArArCrCrUrGrCrArGrAdAdA | 60.6
38 | sense rUrCrUrGrGrCrArCrCrCrArArArUrGrUrUrGrAdTdT / antisense rUrCrArArCrArUrUrUrGrGrGrUrGrCrCrArGrAdTdT | 73.4
39 | sense rUrGrArArArArGrCrCrArGrArGrGrArArCrGrCdTdT / antisense rGrCrGrUrUrCrCrUrCrUrGrGrCrUrUrUrUrCrAdTdA | 35.9
40 | sense rUrGrArArArUrUrCrArUrUrArCrArGrArArArUdTdT / antisense rArUrUrUrCrUrGrUrArArUrGrArArUrUrUrCrAdTdT | 61.6
41 | sense rUrGrArUrGrUrGrUrGrCrArUrUrUrCrUrArUrUdTdT / antisense rArArUrArGrArArArUrGrCrArCrArCrArUrCrAdCdC | 74.8
42 | sense rUrGrArUrUrArGrUrGrUrCrArUrUrUrCrUrArUdTdT / antisense rArUrArGrArArArUrGrArCrArCrUrArArUrCrAdTdG | 78.5
43 | sense rUrGrCrCrCrGrCrUrGrUrGrUrArArGrArArArAdTdT / antisense rUrUrUrUrCrUrUrArCrArCrArGrCrGrGrGrCrAdAdC | 94.3
44 | sense rUrGrCrGrArArArGrArArUrGrGrArGrGrGrArAdTdT / antisense rUrUrCrCrCrUrCrCrArUrUrCrUrUrUrCrGrCrAdGdC | 72.7
45 | sense rUrGrCrUrGrCrGrArArArGrArArUrGrGrArGrGdTdT / antisense rCrCrUrCrCrArUrUrCrUrUrUrCrGrCrArGrCrAdTdC | 34.4
46 | sense rUrGrGrArGrArArUrUrUrArArArArGrArArArAdTdT / antisense rUrUrUrUrCrUrUrUrUrArArArUrUrCrUrCrCrAdTdT | 74.2
47 | sense rUrGrGrUrGrArUrGrUrGrUrGrCrArUrUrUrCrUdTdT / antisense rArGrArArArUrGrCrArCrArCrArUrCrArCrCrAdTdT | 85
48 | sense rUrUrArGrUrGrUrCrArUrUrUrCrUrArUrGrCrUdTdT / antisense rArGrCrArUrArGrArArArUrGrArCrArCrUrArAdTdC | 54
49 | sense rUrUrCrUrArUrGrCrUrGrGrCrArGrArCrCrCrUdTdT / antisense rArGrGrGrUrCrUrGrCrCrArGrCrArUrArGrArAdAdT | 61
50 | sense rUrUrUrArArArArGrArArArArGrUrUrGrCrCrCdTdT / antisense rGrGrGrCrArArCrUrUrUrUrCrUrUrUrUrArArAdTdT | 43.5
51 | sense rUrUrUrCrUrArUrUrCrUrUrCrArUrGrArGrCrCdTdT / antisense rGrGrCrUrCrArUrGrArArGrArArUrArGrArArAdTdG | 29.5
52 | sense rUrUrUrCrUrGrCrArGrGrUrUrUrArArUrArGrAdTdT / antisense rUrCrUrArUrUrArArArCrCrUrGrCrArGrArArAdAdG | 51.7
